Values of other authors as cited in patent publication US20030133985A1, “Formulation of an erodible, gastric retentive oral dosage form using in vitro disintegration test data” (priority 2001, published 2003).

Conditions: at 20° C.

CC1(C)O[C@@H]2[C@@H](CO[C@@]3(COS(N)(=O)=O)OC(C)(C)O[C@@H]23)O1 [topiramate]
water solubility: 1%
